Results taken from patent US12054497B2, “Substituted heterocyclic fused cyclic compound, preparation method therefor and pharmaceutical use thereof” (GENFLEET THERAPEUTICS (SHANGHAI) INC., priority 2019, dated 2024).
Like-named read-outs stand apart in the source and are kept apart here.

How the values were obtained:
[1] = test system: A549 cells with Kras G12S mutation; assay: Cell proliferation inhibition experiment, 3D spheroid, CellTiter-Glo (Test Example 1); type: cell-based, human; settings: 5 days
Method in brief: (§1)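 NCI-H358 (800 cells/well) and A549 (400 cells/well) grown overnight as 3D spheroids in 2% FBS medium, then exposed to compound dilution series (3.16-fold, 0.1% DMSO) for 5 days. CellTiter-Glo luminescence read; inhibition relative to DMSO and blank, IC50 by four-parameter fit.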

[2] = test system: NCI-H358 cells with Kras G12C mutation; assay: as above; type: cell-based, human; settings: 5 days
Method in brief: as §1

[3] = test system: phosphorylated ERK in MIA PaCa2 cells with Kras G12C mutation; assay: p-ERK HTRF assay for cells (Test Example 2); type: cell-based, human
Method in brief: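 MIA PaCa2 cells (2.5E4/well, seeded overnight) treated 2 h with compound in a 3.16-fold series at 0.1% DMSO. Cells lysed 30 min; p-ERK read by HTRF after 4 h antibody incubation. Inhibition relative to DMSO and blank; IC50 by four-parameter fit.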

[4] = test system: MIA PaCa-2 cells with Kras G12C mutation; assay: Cell proliferation inhibition experiment, 3D spheroid, CellTiter-Glo (Test Example 3); type: cell-based, human; settings: 5 days, read-out: MIA-PaCa2 IC50
Method in brief: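 MIA PaCa-2 spheroids (200 cells/well) were formed overnight, then exposed for 5 days to compounds in 3.16-fold dilutions at 0.1% DMSO. Viability was read by CellTiter-Glo luminescence, and inhibition was normalised to DMSO control and medium blank. IC50 came from a four-parameter fit.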

KRas G12C = KRas G12C (Homo sapiens (Human), UniProt P01116, G12C); assay: Nucleotide exchange assay (NEA)-HTRF, SOS1 catalyzed displacement of GDP by GTP (Test Example 4); type: biochemical
Protocol: The effects of compounds on SOS1 catalyzed displacement of GDP by GTP on KRas proteins was examined by homogeneous time-resolved fluorescence (HTRF). 30 μM 6×his labeled KRas G12C recombinant protein and 80 μM fluorochrome DY647 labeled GDP were co-incubated in a labeling buffer (1 mM DTT, 7.5 mM EDTA, 25 mM Tris-HCl, 45 mM NaCl) at 20° C. away from light for 2 hours. Protein quantification was performed after purification on the NAP-5 column to determine the concentration of KRas G12C-GDP.
1000× stock solutions of compounds at a concentration gradient of 3.16 were prepared by using DMSO, and diluted 250 times by a reaction buffer (40 mM N-2-hydroxyethylpiperazine-N-2-ethane sulfonic acid (HEPES), 10 mM MgCl2, 1 mM DTT, 0.002% Triton X-100) into 4× stock solutions of compounds. KRas G12C-GDP/Tb working solution (40 nM KRas G12C-GDP, 1×anti-his Tb) and SOS1/GTP working solution (0.2 μM SOS1, 200 μM GTP) were prepared by using the reaction buffer.
5 μl of 4×stock solution of a compound and 10 μl of KRas G12C-GDP/T working solution were added to each well of 96-well plate with white unclear bottom, and 5 μl of reaction buffer was added to the well of control group in stead of the 4×stock solution of a compound. After incubation at 20° C. away from light for 15 minutes, 5 μl of SOS1/GTP working solution was added and incubated at 20° C. away from light for 2 hours, and then a value of fluorescence intensity was read (excitation wavelength: 320 nm, and emission wavelengths: 615 nm and 665 nm). Besides, group TO was established with 10 μl of the reaction buffer and 10 μl of the KRas G12C-GDP/Tb working solution, and the value of fluorescence intensity was directly read. A relative light unit (RLU) was calculated by the following equation: RLU=(665 nm signal/615 nm signal)×10^4; and the inhibition rate (IR) of the compound was calculated by the following equation: IR (%)=(RLUcompound−RLUcontrol)/(RLUT0−RLUcontrol)×100%. The value of IC50 was calculated by fitting a gradiently diluted concentration of the compound and the corresponding cell proliferation inhibition rate using a four-parameter method.

[5] = MIA PaCa2 cells, 2 hours with compound, read-out: p-ERK IC50
[6] = Homo sapiens, MIA PaCa-2, 2 h, MIA PaCa2 cells, 2 hours with compound, read-out: p-ERK IC50
[7] = Homo sapiens, MIA PaCa-2, 120 h
[8] = Homo sapiens, MIA PaCa-2, 2 h, read-out: p-ERK IC50, MIA PaCa2 cells, 2 hours with compound

KRas G12C, sequence (P01116-2 other isoform, or with tags, fused parts or gaps G12C): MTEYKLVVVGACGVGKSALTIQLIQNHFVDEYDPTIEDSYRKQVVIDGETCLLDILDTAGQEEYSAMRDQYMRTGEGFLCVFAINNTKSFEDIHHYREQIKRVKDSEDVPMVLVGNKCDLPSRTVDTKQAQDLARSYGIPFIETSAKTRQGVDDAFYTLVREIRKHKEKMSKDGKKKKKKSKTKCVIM

Compound	IC50 [1]	IC50 [2]	IC50 [3, 5]	IC50 [4]	IC50 (KRas G12C)	IC50 ([1]; Homo sapiens, A549, 120 h)	IC50 [3, 6]	IC50 ([2]; Homo sapiens, NCI-H358, 120 h)	IC50 [4, 7]	IC50 [3, 8]	IC50 ([4]; Homo sapiens, 120 h)
C=CC(=O)N1CCN2c3c(c(=O)n(-c4c(C)ncnc4C(C)C)c4nc(-c5c(O)cccc5F)c(F)cc34)N(C)C(=O)[C@H]2C1 (single isomer, unassigned) [Compound Z21-1]	> 30000 nM	27 nM	428 nM	46 nM	172 nM						
C=CC(=O)N1C[C@@H]2C(=O)N(C)c3c(c4cc(F)c(-c5c(O)cccc5F)nc4n(-c4c(C)cnn4C(C)C)c3=O)N2C[C@H]1C (single isomer, unassigned) [Compound Z33-2]		34 nM		48 nM	162 nM	> 30000 nM	238 nM				
C=CC(=O)N1CCN2c3c(c(=O)n(-c4c(C(C)C)ccnc4C(C)C)c4c(F)c(-c5c(O)cccc5F)c(Cl)cc34)N(C)C(=O)[C@H]2C1 [Compound Z37]					20 nM	8570 nM	21 nM	1 nM	4 nM		
C=CC(=O)N1CCN2c3c(c(=O)n(-c4c(C)ccnc4C(C)C)c4nc(-c5c(O)cccc5F)c(Cl)cc34)N(C)C(=O)[C@H]2C1 [Compound Z25, (4aR)-3-acryloyl-11-chloro-10-(2-fluoro-6-hydroxyphenyl)-8-(2-isopropyl-4-methylpyridin-3-yl)-6-methyl-2,3,4,4a,6,8-hexahydro-1H-pyrazino[1′,2′:4,5]pyrazino[2,3-c][1,8]naphthyridin-5,7-dione]					60 nM	28300 nM		4 nM		51 nM	8 nM
C=CC(=O)N1C[C@@H]2C(=O)N(C)c3c(c4cc(Cl)c(-c5c(O)cccc5F)c(F)c4n(-c4c(C(C)C)ncnc4C(C)C)c3=O)N2C[C@H]1C (single isomer, unassigned) [Compound Z50-1]	> 30000 nM	0.3 nM	6 nM		8 nM				1 nM		
[2H]C([2H])([2H])N1C(=O)[C@H]2CN(C(=O)C=C)CCN2c2c1c(=O)n(-c1c(C)ccnc1C(C)C)c1nc(-c3c(O)cccc3F)c(Cl)cc21 [Compound Z26, (4aR)-3-acryloyl-11-chloro-10-(2-fluoro-6-hydroxyphenyl)-8-(2-isopropyl-4-methylpyridin-3-yl)-6-(methyl-d3)-2,3,4,4a,6,8-hexahydro-1H-pyrazino[1′,2′:4,5]pyrazino[2,3-c][1,8]naphthyridin-5,7-dione]	12900 nM	2 nM			34 nM					39 nM	5 nM
C=CC(=O)N1CCN2c3c(c(=O)n(-c4c(C)ccnc4C(C)C)c4nc(-c5c(O)cccc5F)c(F)cc34)N(CC)C(=O)[C@H]2C1 [Compound Z30, (4aR)-3-acryloyl-6-ethyl-11-fluoro-10-(2-fluoro-6-hydroxyphenyl)-8-(2-isopropyl-4-methylpyridin-3-yl)-2,3,4,4a,6,8-hexahydro-1H-pyrazino[1′,2′:4,5]pyrazino[2,3-c][1,8]naphthyridin-5,7-dione]		51 nM			656 nM	> 30000 nM	676 nM		140 nM		
C=CC(=O)N1C[C@@H]2C(=O)N(C)c3c(c4cc(C5CC5)c(-c5c(O)cccc5F)nc4n(-c4c(C)ccnc4C(C)C)c3=O)N2C[C@H]1C [Compound Z31, (2R,4aR)-3-acryloyl-11-cyclopropyl-10-(2-fluoro-6-hydroxyphenyl)-8-(2-isopropyl-4-methylpyridin-3-yl)-2,6-dimethyl-2,3,4,4a,6,8-hexahydro-1H-pyrazino[1′,2′:4,5]pyrazino[2,3-c][1,8]naphthyridin-5,7-dione]					151 nM	9490 nM	206 nM	17 nM	59 nM		
C=CC(=O)N1C[C@@H]2C(=O)N(C)c3c(c4cc(Cl)c(-c5c(O)cccc5F)nc4n(-c4c(C)ccnc4C(C)C)c3=O)N2C[C@H]1C [Compound Z27, (2R,4aR)-3-acryloyl-11-chloro-10-(2-fluoro-6-hydroxyphenyl)-8-(2-isopropyl-4-methylpyridin-3-yl)-2,6-dimethyl-2,3,4,4a,6,8-hexahydro-1H-pyrazino[1′,2′:4,5]pyrazino[2,3-c][1,8]naphthyridin-5,7-dione]					27 nM	10100 nM	29 nM	2 nM	4 nM		
